Reference: PMC7156458, “Synthetic biology based construction of biological activity-related library of fungal decalin-containing diterpenoid pyrones” (Nature Communications, 2020)

Target: Aβ42 (Homo sapiens, UniProt P05067)
Test: Th-T (thioflavin-T) assay of Aβ42 aggregation
Type: biochemical
Settings: for Th-T assay plate reading, mean of three wells (Supplementary Fig. 47): source data, Ab alone and No Ab as controls

Chain of Aβ42 (P05067 672-713): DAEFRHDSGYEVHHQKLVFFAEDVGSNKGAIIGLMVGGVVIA

SMILES: C=C1CCC2C(C)(CC(=O)C=C(C)C)C(O)CCC2(C)C1Cc1c(OC)oc(CO)c(C)c1=O (centres unmarked) [Compound 19]
- Th-T fluorescence, mean of three wells (Aβ42 aggregation time course, reading M117): 3.6075
- Th-T fluorescence, mean of three wells (Aβ42 aggregation time course, reading M118): 3.626
- Th-T fluorescence, mean of three wells (Aβ42 aggregation time course, reading M119): 3.587
- Th-T fluorescence, mean of three wells (Aβ42 aggregation time course, reading M120): 3.625
- Th-T fluorescence, mean of three wells (Aβ42 aggregation time course, reading M121): 3.6213
- Th-T fluorescence, mean of three wells (Aβ42 aggregation time course, reading M122): 3.6222
- Th-T fluorescence, mean of three wells (Aβ42 aggregation time course, reading M123): 3.606
- Th-T fluorescence, mean of three wells (Aβ42 aggregation time course, reading M124): 3.5846
- Th-T fluorescence, mean of three wells (Aβ42 aggregation time course, reading M125): 3.61
- Th-T fluorescence, mean of three wells (Aβ42 aggregation time course, reading M126): 3.596
- Th-T fluorescence, mean of three wells (Aβ42 aggregation time course, reading M127): 3.587
- Th-T fluorescence, mean of three wells (Aβ42 aggregation time course, reading M128): 3.613
- Th-T fluorescence, mean of three wells (Aβ42 aggregation time course, reading M129): 3.627
- Th-T fluorescence, mean of three wells (Aβ42 aggregation time course, reading M130): 3.59
- Th-T fluorescence, mean of three wells (Aβ42 aggregation time course, reading M131): 3.596
- Th-T fluorescence, mean of three wells (Aβ42 aggregation time course, reading M132): 3.652
- Th-T fluorescence, mean of three wells (Aβ42 aggregation time course, reading M133): 3.618
- Th-T fluorescence, mean of three wells (Aβ42 aggregation time course, reading M134): 3.586
- Th-T fluorescence, mean of three wells (Aβ42 aggregation time course, reading M135): 3.587
- Th-T fluorescence, mean of three wells (Aβ42 aggregation time course, reading M136): 3.617
- Th-T fluorescence, mean of three wells (Supplementary Fig. 47, reading M137): 3.599
- Th-T fluorescence, mean of three wells (Supplementary Fig. 47, reading M138): 3.596
- Th-T fluorescence, mean of three wells (Supplementary Fig. 47, reading M139): 3.59
- Th-T fluorescence, mean of three wells (Supplementary Fig. 47, reading M140): 3.5958
- Th-T fluorescence, mean of three wells (Supplementary Fig. 47, reading M141): 3.577
- Th-T fluorescence, mean of three wells (Supplementary Fig. 47, reading M142): 3.567
- Th-T fluorescence, mean of three wells (Supplementary Fig. 47, reading M143): 3.559
- Th-T fluorescence, mean of three wells (Supplementary Fig. 47, reading M144): 3.573
- Th-T fluorescence, mean of three wells (Supplementary Fig. 47, reading M145): 3.546
- Th-T fluorescence, mean of three wells (Supplementary Fig. 47 source data, measurement M37 of time course): 3.411
- Th-T fluorescence, mean of three wells (Supplementary Fig. 47 source data, measurement M38 of time course): 3.42
- Th-T fluorescence, mean of three wells (Supplementary Fig. 47 source data, measurement M39 of time course): 3.449
- Th-T fluorescence, mean of three wells (Supplementary Fig. 47 source data, measurement M40 of time course): 3.484
- Th-T fluorescence, mean of three wells (Supplementary Fig. 47 source data, measurement M41 of time course): 3.495
- Th-T fluorescence, mean of three wells (Supplementary Fig. 47 source data, measurement M42 of time course): 3.511
- Th-T fluorescence, mean of three wells (Supplementary Fig. 47 source data, measurement M43 of time course): 3.5042
- Th-T fluorescence, mean of three wells (Supplementary Fig. 47 source data, measurement M44 of time course): 3.529
- Th-T fluorescence, mean of three wells (Supplementary Fig. 47 source data, measurement M45 of time course): 3.546
- Th-T fluorescence, mean of three wells (Supplementary Fig. 47 source data, measurement M46 of time course): 3.545
- Th-T fluorescence, mean of three wells (Supplementary Fig. 47 source data, measurement M47 of time course): 3.542
- Th-T fluorescence, mean of three wells (Supplementary Fig. 47 source data, measurement M48 of time course): 3.567
- Th-T fluorescence, mean of three wells (Supplementary Fig. 47 source data, measurement M49 of time course): 3.564
- Th-T fluorescence, mean of three wells (Supplementary Fig. 47 source data, measurement M50 of time course): 3.566
- Th-T fluorescence, mean of three wells (Supplementary Fig. 47 source data, measurement M51 of time course): 3.621
- Th-T fluorescence, mean of three wells (Supplementary Fig. 47 source data, measurement M52 of time course): 3.57
- Th-T fluorescence, mean of three wells (Supplementary Fig. 47 source data, measurement M53 of time course): 3.596
- Th-T fluorescence, mean of three wells (Supplementary Fig. 47 source data, measurement M54 of time course): 3.5732
- Th-T fluorescence, mean of three wells (Supplementary Fig. 47 source data, measurement M55 of time course): 3.592
- Th-T fluorescence, mean of three wells (Supplementary Fig. 47 source data, measurement M56 of time course): 3.662
- Th-T assay plate reading, mean of three wells (Supplementary Fig. 47) (measurement M1): 0.2658
- Th-T assay plate reading, mean of three wells (Supplementary Fig. 47) (measurement M2): 0.2823
- Th-T assay plate reading, mean of three wells (Supplementary Fig. 47) (measurement M3): 0.3173
- Th-T assay plate reading, mean of three wells (Supplementary Fig. 47) (measurement M4): 0.3889
- Th-T assay plate reading, mean of three wells (Supplementary Fig. 47) (measurement M5): 0.4637
- Th-T assay plate reading, mean of three wells (Supplementary Fig. 47) (measurement M6): 0.5676
- Th-T assay plate reading, mean of three wells (Supplementary Fig. 47) (measurement M7): 0.5832
- Th-T assay plate reading, mean of three wells (Supplementary Fig. 47) (measurement M8): 0.6497
- Th-T assay plate reading, mean of three wells (Supplementary Fig. 47) (measurement M9): 0.6755
- Th-T assay plate reading, mean of three wells (Supplementary Fig. 47) (measurement M10): 0.7219
- Th-T assay plate reading, mean of three wells (Supplementary Fig. 47) (measurement M11): 0.7495
- Th-T assay plate reading, mean of three wells (Supplementary Fig. 47) (measurement M12): 0.7862
- Th-T assay plate reading, mean of three wells (Supplementary Fig. 47) (measurement M13): 0.8322
- Th-T assay plate reading, mean of three wells (Supplementary Fig. 47) (measurement M14): 0.8734
- Th-T assay plate reading, mean of three wells (Supplementary Fig. 47) (measurement M15): 0.9399
- Th-T assay plate reading, mean of three wells (Supplementary Fig. 47) (measurement M16): 1.015
- Th-T fluorescence, mean of three wells (reading M17, Supplementary Fig. 47 source data): 1.1695
- Th-T fluorescence, mean of three wells (reading M18, Supplementary Fig. 47 source data): 1.449
- Th-T fluorescence, mean of three wells (reading M19, Supplementary Fig. 47 source data): 1.7884
- Th-T fluorescence, mean of three wells (reading M20, Supplementary Fig. 47 source data): 2.128
- Th-T fluorescence, mean of three wells (reading M21, Supplementary Fig. 47 source data): 2.459
- Th-T fluorescence, mean of three wells (reading M22, Supplementary Fig. 47 source data): 2.644
- Th-T fluorescence, mean of three wells (reading M23, Supplementary Fig. 47 source data): 2.778
- Th-T fluorescence, mean of three wells (reading M24, Supplementary Fig. 47 source data): 2.868
- Th-T fluorescence, mean of three wells (reading M25, Supplementary Fig. 47 source data): 2.94
- Th-T fluorescence, mean of three wells (reading M26, Supplementary Fig. 47 source data): 3.016
- Th-T fluorescence, mean of three wells (reading M27, Supplementary Fig. 47 source data): 3.079
- Th-T fluorescence, mean of three wells (reading M28, Supplementary Fig. 47 source data): 3.14
- Th-T fluorescence, mean of three wells (reading M29, Supplementary Fig. 47 source data): 3.171
- Th-T fluorescence, mean of three wells (reading M30, Supplementary Fig. 47 source data): 3.2173
- Th-T fluorescence, mean of three wells (reading M31, Supplementary Fig. 47 source data): 3.256
- Th-T fluorescence, mean of three wells (reading M32, Supplementary Fig. 47 source data): 3.313
- Th-T fluorescence, mean of three wells (reading M33, Supplementary Fig. 47 source data): 3.3097
- Th-T fluorescence, mean of three wells (reading M34, Supplementary Fig. 47 source data): 3.333
- Th-T fluorescence, mean of three wells (reading M35, Supplementary Fig. 47 source data): 3.364
- Th-T fluorescence, mean of three wells (reading M36, Supplementary Fig. 47 source data): 3.374
- Th-T fluorescence, mean of three wells (time course, reading M57): 3.606
- Th-T fluorescence, mean of three wells (time course, reading M58): 3.638
- Th-T fluorescence, mean of three wells (time course, reading M59): 3.598
- Th-T fluorescence, mean of three wells (time course, reading M60): 3.6035
- Th-T fluorescence, mean of three wells (time course, reading M61): 3.616
- Th-T fluorescence, mean of three wells (time course, reading M62): 3.642
- Th-T fluorescence, mean of three wells (time course, reading M63): 3.645
- Th-T fluorescence, mean of three wells (time course, reading M64): 3.635
- Th-T fluorescence, mean of three wells (time course, reading M65): 3.622
- Th-T fluorescence, mean of three wells (time course, reading M66): 3.629
- Th-T fluorescence, mean of three wells (time course, reading M67): 3.626
- Th-T fluorescence, mean of three wells (time-course reading M97, Supplementary Fig. 47 source data): 3.5997
- Th-T fluorescence, mean of three wells (time-course reading M98, Supplementary Fig. 47 source data): 3.623
- Th-T fluorescence, mean of three wells (time-course reading M99, Supplementary Fig. 47 source data): 3.625
- Th-T fluorescence, mean of three wells (time-course reading M100, Supplementary Fig. 47 source data): 3.601
- Th-T fluorescence, mean of three wells (time-course reading M101, Supplementary Fig. 47 source data): 3.5892
- Th-T fluorescence, mean of three wells (time-course reading M102, Supplementary Fig. 47 source data): 3.633
- Th-T fluorescence, mean of three wells (time-course reading M103, Supplementary Fig. 47 source data): 3.645
- Th-T fluorescence, mean of three wells (time-course reading M104, Supplementary Fig. 47 source data): 3.661
- Th-T fluorescence, mean of three wells (time-course reading M105, Supplementary Fig. 47 source data): 3.626
- Th-T fluorescence, mean of three wells (time-course reading M106, Supplementary Fig. 47 source data): 3.655
- Th-T fluorescence, mean of three wells (time-course reading M107, Supplementary Fig. 47 source data): 3.608
- Th-T fluorescence, mean of three wells (time-course reading M108, Supplementary Fig. 47 source data): 3.642
- Th-T fluorescence, mean of three wells (time-course reading M109, Supplementary Fig. 47 source data): 3.6107
- Th-T fluorescence, mean of three wells (time-course reading M110, Supplementary Fig. 47 source data): 3.642
- Th-T fluorescence, mean of three wells (time-course reading M111, Supplementary Fig. 47 source data): 3.621
- Th-T fluorescence, mean of three wells (time-course reading M112, Supplementary Fig. 47 source data): 3.604
- Th-T fluorescence, mean of three wells (time-course reading M113, Supplementary Fig. 47 source data): 3.595
- Th-T fluorescence, mean of three wells (time-course reading M114, Supplementary Fig. 47 source data): 3.63
- Th-T fluorescence, mean of three wells (time-course reading M115, Supplementary Fig. 47 source data): 3.6287
- Th-T fluorescence, mean of three wells (time-course reading M116, Supplementary Fig. 47 source data): 3.617
